In this experiment the test system is MMP-1. Kind of experiment: MMP-1 expression level by MMP-1 ELISA kit, UV-stimulated HaCaT cell culture and human fibroblast culture. The format is cell-based. The following applies: for MMP-1 production: Control = 100, UV = 260.4; for effect of inhibiting MMP-1 as compared to catechin or epicatechin: Table 1 and FIG. 3. As for the experimental part:
Then, after replacing the medium with an FBS-free DMEM medium to starve the cells, they were treated with UV on the next day.
Then, the cells were starved by replacing the medium with an FBM medium with no supplement. Then, the UV-stimulated HaCaT cell culture and the human fibroblast culture were treated with a total of 6 samples prepared by dissolving the (2R,3S)-heptahydroxyflavan and (2R,3R)-heptahydroxyflavan obtained in Example 1 in 5% DMSO to concentrations of 5 μg/mL (=about 15.5 μM), 10 μg/mL (=about 31.0 μM) and 20 μg/mL (=about 62.1 μM), respectively. As comparative examples, the cultures were treated with a total of 6 samples prepared by dissolving catechin and epicatechin in 5% DMSO at concentrations of 25 μM, 50 μM and 100 μM, respectively.
After the treatment with the samples, the expression level of MMP-1 was measured using the MMP-1 ELISA kit (R&D Systems). Separately from this, positive control groups were treated with 10 μM EGCG or 10 μM retinoic acid instead of heptahydroxyflavan in the same manner as described above.
A general note: An ELISA detects its analyte on a solid surface through an enzyme-linked reagent.

For `Oc1ccc([C@H]2Oc3c(O)c(O)c(O)c(O)c3C[C@@H]2O)cc1O` [APNP-054], the “effect of inhibiting MMP-1 as compared to catechin or epicatechin” value is given as “remarkably superior effect of inhibiting MMP-1”. Under “5 μg/mL”, the MMP-1 production is on record as 282.1. Also, the MMP-1 production (10 μg/mL) was 267.7. The compound also displayed an MMP-1 production (20 μg/mL) of 183.2.

On to `Oc1ccc([C@H]2Oc3c(O)c(O)c(O)c(O)c3C[C@H]2O)cc1O` [APNP-055], for which the “effect of inhibiting MMP-1 as compared to catechin or epicatechin” value is listed as “remarkably superior effect of inhibiting MMP-1”. For the setting “5 μg/mL”, the MMP-1 production amounted to 281.0. Further, the MMP-1 production (10 μg/mL) came out at 286.6. Besides, the MMP-1 production (20 μg/mL) is reported as 160.6.

`O=C(O[C@@H]1Cc2c(O)cc(O)cc2O[C@@H]1c1cc(O)c(O)c(O)c1)c1cc(O)c(O)c(O)c1` [EGCG] gave an MMP-1 production (10 μM) of 115.4.

The compound `Oc1cc(O)c2c(c1)O[C@H](c1ccc(O)c(O)c1)[C@H](O)C2` [Epicatechin, epicatechin] gave an MMP-1 production (25 μM) of 294.8, an MMP-1 production (50 μM) of 289.1 and an MMP-1 production (100 μM) of 196.2.

Turning to `CC1=C(/C=C/C(C)=C/C=C/C(C)=C/C(=O)O)C(C)(C)CCC1` [RA, retinoic acid], the MMP-1 production (10 μM) came out at 104.5.

catechin: the MMP-1 production reads like this: (25 μM) 308.2; (50 μM) 287.4; (100 μM) 257.3.

Values taken from patent US11554091B2, “Composition for enhancing skin elasticity or improving skin wrinkles comprising heptahydroxyflavan as an effective ingredient” (AMOREPACIFIC CORPORATION, priority 2019, dated 2023).
